According to paper PMC12040169 (PLOS Biology, 2025):

Assay: in vitro
Settings: human, hela cells, % viability

Point of comparison: CC(=O)N1CCC(O)(Cn2c(C3CC3)cc3cccnc32)CC1 [CBK283082], viability at 28.5 h, 10 µM 111%. Against it:
- CCCn1ncc(CN[C@@H]2CCC[C@H]2Cc2cc(C)no2)c1C [CBK282948] — lower, 88.7%
- Fc1ccccc1CN(CCCn1ccnc1)Cc1ccco1 [CBK282952] — lower, 109%
- Cc1c(CN(Cc2cccc(F)c2)CC2CCCO2)cnn1C (centres unmarked) [CBK282953] — lower, 89.9%
- OC12CCCCC1CN(CC1=Cc3ccccc3OC1)CC2 (centres unmarked) [CBK282954] — lower, 86.3%
- CCn1cc(CN2CCC(O)(c3ccc(C)cc3)CC2)c(C)n1 [CBK282955] — lower, 89.2%
- CCn1ncc(CN2CCC(O)(c3ccc(C)cc3)CC2)c1C [CBK282956] — lower, 90.2%
- Cc1cc(C)n(CC(O)CN(Cc2ccccc2)Cc2ccco2)n1 (centres unmarked) [CBK282957] — lower, 95.7%
- COCCCN(Cc1ccccn1)Cc1c(F)cccc1F [CBK282959] — lower, 93.5%
- Cn1cncc1CN(CCCn1ccnc1)Cc1ccccc1F [CBK282960] — lower, 85%
- COCCCN(Cc1ccc(F)c(F)c1)Cc1ccccn1 [CBK282961] — lower, 90.7%
- Cc1cc(C2CCCCCN2Cc2c(C)nn(C)c2C)on1 (centres unmarked) [CBK282967] — lower, 99.7%
- CCC(=O)N1CCC(c2nc(Cc3cccs3)no2)C1 (centres unmarked) [CBK282968] — lower, 88.5%
- Cc1cc(C[C@@H]2COC[C@H]2NCc2ccccc2Cl)on1 [CBK282969] — lower, 94.8%
- O=C(CCn1cncn1)N[C@H]1C2CCCCC2[C@@H]1c1ccccc1 (some centres unmarked) [CBK282970] — lower, 100%
- CCCn1cc(CN2C3CCC2CC(O)(c2ccc(F)cc2)C3)cn1 (centres unmarked) [CBK282971] — lower, 91.5%
- CCn1ncc(CN2C3CCC2CC(O)(c2ccc(F)cc2)C3)c1C (centres unmarked) [CBK282973] — lower, 100%
- COCCCN(Cc1ccccn1)Cc1ccc(F)cc1F [CBK282974] — lower, 103%
- COCCCN(Cc1cc(F)cc(F)c1)Cc1ccccn1 [CBK282975] — lower, 100%
- OCC[C@H]1CN2CCCC2CN1Cc1cccn1-c1ccccc1F (some centres unmarked) [CBK282977] — lower, 93%
- Cc1cc(C)n(CC(O)CN(Cc2ccco2)Cc2cccs2)n1 (centres unmarked) [CBK282979] — lower, 100%
- Cc1cc2ccccc2n1CCCNC(=O)c1ccc(=O)n(C)c1 [CBK282982] — lower, 104%
- COc1ccc(CN2CCCC(c3nc(C)n4ccccc34)C2)cc1 (centres unmarked) [CBK282984] — lower, 94.6%
- OCC[C@H]1CN2CCCC2CN1Cc1cccn1-c1cccc(F)c1 (some centres unmarked) [CBK282985] — lower, 86.1%
- Cn1cncc1CN(CCc1ccccc1)Cc1ccncc1 [CBK282992] — lower, 87.4%
- Cc1cc(C[C@@H]2COC[C@H]2NCc2c(F)cccc2Cl)on1 [CBK282994] — lower, 83.4%
- OC12CCCCC1CN(Cc1nc3ccccc3[nH]1)CC2 (centres unmarked) [CBK282995] — lower, 93.9%
- CC(=O)N1CCC(c2nc(Cc3cccs3)no2)C1 (centres unmarked) [CBK282998] — lower, 108%
- Cc1cc(C[C@@H]2COC[C@H]2NCc2cccs2)on1 [CBK282999] — lower, 95.8%
- CC(=O)NCC1CCC(C(NC(=O)C2CC2)c2ccccn2)CC1 (centres unmarked) [CBK283000] — lower, 87.5%
- O[C@@]1(c2ccccn2)CC[C@H]2CN(Cc3ccccc3F)C[C@H]21 [CBK283001] — lower, 94.3%
- CC(=O)OCc1ccc(CN2CCCCCC2c2cc(C)on2)o1 (centres unmarked) [CBK283004] — lower, 88.2%
- COc1cccc(CN[C@@H]2CCC[C@H]2Cc2cc(C)no2)c1 [CBK283006] — lower, 109%
- Cc1cc(CN(C)Cc2cnn(Cc3ccccc3)c2C)n[nH]1 [CBK283017] — lower, 94.6%
- OCCN(Cc1cccnc1)Cc1cccn1-c1cccc(F)c1 [CBK283018] — lower, 81.5%
- CN(C)CCN(Cc1nc2ccccc2[nH]1)Cc1cccs1 [CBK283020] — lower, 85.1%
- CC(C)N1CCC(N(C)Cc2nc3ccccc3[nH]2)CC1 [CBK283021] — lower, 105%
- Cn1cncc1CN1C[C@@H]2CCCN2C[C@@H]1Cc1ccccc1 [CBK283027] — lower, 91.9%
- C=CCn1ncc(CN2CCC3(O)CCCCC3C2)c1C (centres unmarked) [CBK283029] — lower, 100%
- Fc1ccccc1CN(CCCn1ccnc1)CC1CCOC1 (centres unmarked) [CBK283031] — lower, 104%
- Cc1ccsc1CN(Cc1cncn1C)CC(C)O (centres unmarked) [CBK283033] — lower, 85.7%
- CCCC(=O)N1CCC(c2nc(Cc3cccs3)no2)C1 (centres unmarked) [CBK283034] — lower, 88%
- CCn1cc(CN(CCN(C)C)Cc2cccs2)c(C)n1 [CBK283037] — lower, 101%
- CCC1c2ccc(C)n2CCN1Cc1cnc(C)n1C (centres unmarked) [CBK283038] — lower, 105%
- Cn1cncc1CN(CCCn1ccnc1)Cc1ccccc1Cl [CBK283041] — lower, 84.8%
- OCCN(Cc1cccnc1)Cc1cccn1-c1ccc(F)cc1F [CBK283042] — lower, 90.4%
- O=C(NCCO)C1(Cc2ccc(-c3ccccc3)cc2)CCNC1 (centres unmarked) [CBK283043] — lower, 83.9%
- Cn1ccc(C2CCCCCN2C(=O)Cc2cccs2)n1 (centres unmarked) [CBK283047] — lower, 86.5%
- CC(C)c1cc(C(=O)N2CCCCCC2c2ccn(C)n2)no1 (centres unmarked) [CBK283048] — lower, 85.3%
- CCC(=O)N1CCCc2cc(C(O)CN3CCCC(C)C3)ccc21 (centres unmarked) [CBK283049] — lower, 89.2%
- CC(C)c1cc(C(=O)N2C[C@H](C)N(Cc3ccco3)C[C@@H]2C)on1 [CBK283053] — lower, 90.9%
- CC(C)[C@@H]1C[C@H](C(F)(F)F)n2nc(C3CCCNC3)cc2N1 (some centres unmarked) [CBK283056] — lower, 98.6%
- O=C(c1ccccc1)N1CCCC(c2nnc(-c3cccs3)o2)C1 (centres unmarked) [CBK283059] — lower, 103%
- CCC(=O)N1CCCC(c2nnc(-c3cccs3)o2)C1 (centres unmarked) [CBK283060] — lower, 92%
- CCc1cc(CNS(=O)(=O)c2cc(C)ccc2F)on1 [CBK283064] — lower, 108%
- CC(C)c1cc(C(=O)NC2CCOc3ccccc32)no1 (centres unmarked) [CBK283065] — lower, 93.9%
- Cc1n[nH]c(C)c1CNC(=O)c1cccc2c(C)c(C)[nH]c12 [CBK283068] — lower, 88.9%
- Cc1cc(S(=O)(=O)Nc2ccnn2C(C)C)ccc1F [CBK283069] — lower, 96.9%
- Cc1nc(C)c(C(=O)NCCN2CC(C)CC(C)C2)s1 (centres unmarked) [CBK283071] — lower, 95.1%
- COCc1ccc(C(=O)N2CCC(c3cc4cnccc4[nH]3)CC2)o1 [CBK283073] — lower, 90.9%
- Cc1c(C(=O)NC(C)c2cc3ccccc3o2)cnn1C (centres unmarked) [CBK283074] — lower, 99.3%
- Cc1ccc2oc(CN3CCn4cnnc4C3)c(C)c2c1 [CBK283075] — lower, 109%
- Cc1nn(C)c(C)c1C(C)NC(=O)C1CC2C=CC1C21CC1 (centres unmarked) [CBK283076] — lower, 81.5%
- Cc1cc2cc(NC(=O)CCc3c(C)n[nH]c3C)ccc2o1 [CBK283077] — lower, 84.2%
- Cc1nn(C)c(C)c1CN(C)C(=O)CCC1CCCO1 (centres unmarked) [CBK283078] — lower, 99.7%
- Cc1cc(C)n(CC(=O)Nc2ccccc2-n2ccnc2)n1 [CBK283079] — lower, 101%
- CN1CCC[C@@H]2[C@H]1[C@@H](c1ccc(F)cc1)CN2C(=O)c1ccccn1 [CBK283081] — lower, 103%
- CN(C)CCN(Cc1ccncc1)Cc1ccc(F)cc1F [CBK283094] — lower, 98.2%
- CN(C)CCN(Cc1ccncc1)Cc1cc(F)ccc1F [CBK283095] — lower, 88%
- CN(C)CCN(Cc1ccncc1)Cc1cc(F)cc(F)c1 [CBK283096] — lower, 94.9%
- Fc1ccccc1CN(CCCn1ccnc1)Cc1cccnc1 [CBK283099] — lower, 90.4%
- Cc1ccc(CN(CCCn2ccnc2)Cc2ccncc2)o1 [CBK283101] — lower, 108%
- Cc1ccc(CN(CCCn2ccnc2)Cc2ccccn2)o1 [CBK283102] — lower, 106%
- Cc1ccc(CN(CCCn2ccnc2)Cc2nc3ccccc3[nH]2)o1 [CBK283103] — lower, 90.9%
- CCS(=O)(=O)N1CC2CCCC(O)(c3cccc(F)c3)C2C1 (centres unmarked) [CBK283108] — lower, 99.3%
- Cc1ccc(CN(CCCn2ccnc2)Cc2cnn(C)c2)s1 [CBK283113] — lower, 97.3%
- CCNCc1cc2c(C)nn(-c3ccc(F)cc3)c2[nH]c1=O [CBK283118] — lower, 107%
- Cc1nn(-c2ccc(F)cc2)c2[nH]c(=O)c(CNC(C)C)cc12 [CBK283119] — lower, 95.7%
- Cc1nn(-c2ccc(F)cc2)c2[nH]c(=O)c(CNC(C)(C)C)cc12 [CBK283120] — lower, 102%
- Cc1nn(-c2ccc(F)cc2)c2[nH]c(=O)c(CNC3CC3)cc12 [CBK283121] — lower, 98.1%
- CCC(=O)N1c2ccc(C(O)CN3CCSCC3)cc2CC1C (centres unmarked) [CBK283122] — lower, 91.5%
- COc1ccccc1CN(CCCn1ccnc1)Cc1ccoc1 [CBK283123] — lower, 97.2%
- Cc1ccc(CN[C@@H]2CCC(=O)N[C@H]2c2cc(F)cc(F)c2)o1 [CBK283128] — lower, 97.9%
- O=C1CC[C@@H](NCc2cccs2)[C@H](c2cc(F)cc(F)c2)N1 [CBK283129] — lower, 95.5%
- O=C1CC[C@@H](NCc2cccnc2)[C@H](c2cc(F)cc(F)c2)N1 [CBK283130] — lower, 90.9%
- O=C1CC[C@@H](NCc2ccncc2)[C@H](c2cc(F)cc(F)c2)N1 [CBK283131] — lower, 92.9%
- Cc1nn(C(C)CC(=O)NC2CCCOC2)c(C)c1C (centres unmarked) [CBK283133] — higher, 112%
- Cc1ccc(CN(CCCn2ccnc2)Cc2ccccc2O)s1 [CBK283135] — lower, 103%
- Cc1ccc(CN(CCCn2ccnc2)Cc2nccn2C)s1 [CBK283137] — lower, 91.8%
- Cc1ccc(CN(CCCn2ccnc2)Cc2[nH]cnc2C)s1 [CBK283138] — lower, 90.3%
- O=C(Nc1cccc(N2CCCC2)c1)c1cc(C2CC2)on1 [CBK283139] — lower, 87.7%
- Cc1n[nH]c(C)c1CNC(=O)c1cc2ccc(F)cc2[nH]1 [CBK283147] — lower, 89.4%
- OC1(c2cccnc2F)CCN(Cc2c(F)cccc2Cl)CC1 [CBK283148] — lower, 106%
- OC1(c2cccnc2F)CCN(Cc2c(F)cccc2F)CC1 [CBK283149] — lower, 107%
- CCNC(=O)c1ccc(-n2cccn2)c(C#Cc2cccnc2)c1 [CBK283150] — lower, 105%
